Experimental data taken from US20230382916A1, “HETEROARYL HETEROCYCLIC COMPOUNDS AND USES THEREOF” (HUTCHISON MEDIPHARMA LIMITED, priority 2020, published 2023).

How the values were obtained:
[1] = Stability test in liver microsomes (mouse); format: in vitro ADME; details: mouse liver microsomes 0.5 mg/mL, 1 μM compound
Experimental: (§1) Both male CD-1 mouse pooled liver microsomes and male SD rat pooled liver microsomes were purchased from BioreclamationIVT Corporation, USA.
(§2) The test compound stock solution was diluted with an organic solvent (usually a mixture of acetonitrile, methanol and water with various ratios, depending on the solubility of the compound, if necessary, 1 N hydrochloric acid or 1 N sodium hydroxide would be added to facilitate solubilization) to the 0.1 mM (the final concentration of the compound in the reaction system was 1 μM) and the concentration percentage of the organic solvents in the incubation system no more than 1% (wherein the percentage of DMSO was required to be no more than 0.1%). An appropriate amount of 100 mM NADP, 500 mM G-6-P and 100 Unit/mL G-6-PDH were mixed and diluted with ultrapure water (the final system contains 1 mM NADP, 5 mM G-6-P and 1 Unit/mL G-6-PDH), pre-incubated in a 37° C. water bath for 10 minutes and then placed on ice for use as a NADPH regeneration solution. 20 mg/mL liver microsomes solution and 200 mM phosphate buffer were mixed, and diluted with ultrapure water to give a liver microsomes solution containing 2.5 mg/mL liver microsomes (the final concentration of the reaction system is 0.5 mg/mL) and 50 mM phosphate buffer. The diluted liver microsomes solution was mixed with 0.1 mM compound solution, a mixture of 100 mM EDTA, 300 mM MgCl2 solution, 200 mM phosphate buffer (the final system was 3 mM MgCl2, 1 mM EDTA and 50 mM phosphate buffer) and water in an appropriate volume was added. Finally, the NADPH regeneration solution was added, then the reaction solution was placed in a 37° C. water bath to start the reaction (the reaction time was 30 minutes), and the reaction was stopped by adding the ice-cold acetonitrile reaction stopping solution containing the internal standard. The 0-minute sample was not incubated in a 37° C. water bath, and its difference from the 30-minute sample further lies in that the ice-cold acetonitrile reaction stopping solution containing the internal standard was added first, and then the NADPH regeneration solution was added. The sample added with the reaction stopping internal standard solution was vortexed and mixed well, and then centrifuged at 4400 rpm for 10 minutes. The supernatant was taken and diluted ten times with 50% methanol for LC-MS/MS analysis.
(§3) LC-MS/MS was used to determine the concentration of the compound in the sample. The percentage of the remaining compound after 30 minutes of incubation comparing with that in the 0-minute sample was calculated using the peak area ratio of the compound to the internal standard as an indicator, to evaluate the metabolic stability of the compound.

[2] = biological target: BTK recombinant protein (Homo sapiens (Human), UniProt Q06187); experiment: Determination of biochemical BTK (Z'-LYTE kinase assay); details: 32 μM ATP
Source text: BTK recombinant protein: Invitrogen, Cat #PV3363;
Z′-LYTE® kinase test kit-tyrosine 1 peptide: Invitrogen, Cat #PV3190;
Z′-LYTE® biochemical assay employs a fluorescence resonance energy transfer (FRET)-based, coupled-enzyme format and is based on the differential sensitivity of phosphorylated and non-phosphorylated peptides to proteolytic cleavage. Both ends of the short peptide substrate are labeled with two fluorescent groups to form a FRET paired combination. In the primary reaction (the Kinase Reaction), the kinase transfers the γ-phosphate of ATP to a single […] residue on the short peptide substrate. In the secondary reaction (the development reaction), the non-phosphorylated short peptides were recognized and cleaved by a site-specific protease (the development reagent). Phosphorylated short peptides can resist such cleavage. Cleavage of short peptides can disrupt the donor (such as coumarin) and receptor fluorophores (fluorescein) on the short peptides, while the phosphorylated short peptides can maintain FRET. The calculation method of the ratio is as follows, and the ratio of the respective emission signals generated by the donor fluorophores emitted (after excitation at 400 nm) to the receptors is calculated. Emission signal ratio=emitted light by coumarin (445 nm)/emitted light by fluorescein (520 nm). If the FRET short peptide is phosphorylated (such as no kinase inhibitor), the emitted light ratio will remain in a lower level. If the FRET short peptide is non-phosphorylated (such as kinase inhibitor), the emitted light ratio will be in a higher level. In this way, the inhibitory effects of different compound inhibitors on BTK kinase activity would be distinguished.
The experiment was carried out according to the instructions of the Z′-LYTE® kinase test kit-tyrosine 1 peptide. Reagent preparation: 1.33× kinase buffer: 5× kinase buffer was diluted with water to 1.33× kinase buffer; an enzyme solution: the kinase was dissolved in 1.33× kinase buffer with the final working concentration being 3.32 nM; a short peptide solution: a short peptide stock solution (1 mM dissolved in DMSO) was dissolved in 1.33× kinase buffer with the final working concentration being 2 μM; Z′-LYTE Tyr01 phosphorylated short peptide solution, 0.6 μl of stock solution (1 mM dissolved in DMSO) was dissolved in 149.4 μl of 1.33× kinase buffer; an ATP solution: an ATP stock solution (10 mM aqueous solution) was dissolved in 1.33× kinase buffer with the final working concentration being 32 μM; a color-developing solution: color-developing solution B was dissolved in color-developing buffer with the final working concentration being 1× color-developing solution; 4× compound preparation: the compound was diluted in 3-fold gradient concentration to finally obtain 4% DMSO aqueous solution containing different concentrations of the compound, with the final working concentration being 3000, 1000, 333.33, 111.11, 37.04, 12.35, 4.12, 1.37 nM, 8 concentration points in total.
Specific steps of the experiment: In the experiment, there were three control groups, each with 8 replicate wells, which were C1 100% inhibition group (no ATP), C2 0% inhibition group (with ATP), and C3 100% phosphorylation group, respectively. 2.5 μl of serially diluted compound was added to each well of a 384-well plate, with double replicate wells, and 4% DMSO solution was added to wells C1, C2, and C3. After that, except for wells C3, 2.5 μl of BTK enzyme solution was added to each remaining well, which was left to stand at 4° C. for 30 minutes. After that, except for wells C3, 2.5 μl of short peptide solution was added to each well, and 5 μl of phosphorylated short peptide solution was added to each of wells C3. 2.5 μl of 1.33× kinase buffer was added to each of wells C1 and C3, and 2.5 μl of ATP solution was added to each of the remaining wells. The wells were centrifuged transiently, and the plate was shaken at 1000 rpm for 30 seconds to perform transient centrifuge. […]

[3] = Stability test in liver microsomes (rat); format: in vitro ADME; details: rat liver microsomes 0.5 mg/mL, 1 μM compound
Experimental: as §1, §2, §3

[4] = tested on: anti-IgD antibody-induced B cell activation in mice whole blood; experiment: In vivo efficacy of the inhibitory effect on BTK target: anti-IgD antibody-induced B cell activation in mice whole blood after oral dosing; design: species or system mouse; details: 20 mg/kg oral single dose, 16 h
Experimental: Objects: B cells in mice whole blood were induced and activated by the anti-IgD antibody, and the inhibitory effect of the compound of the present invention on B cell activation in vivo was studied, so as to determine the inhibitory effect of the compound of the present invention on the BTK target in vivo.
Methods: C57BL/6 mice (female, 18-20 g, purchased from Shanghai Lingchang Biotechnology Co., Ltd.) were grouped according to Table 1.
The animals of each group were administered, then were placed in CO2 for anesthesia at designated time points, blood samples were taken from […] via retro-orbital bleeding, and heparin was used for anticoagulation; 90 μL of whole blood was taken from mice of each group, and added to a 96 well culture plate, and anti-mouse IgD antibody (BIO-RAD, Cat #MCA4693) was added to each well to a final concentration of […] (respectively for each drug-treated group and anti-IgD antibody-inducted vehicle group); in addition, 90 μL of whole blood of mice in the vehicle group was taken and added to the 96-well culture plate, and PBS (phosphate buffer, GIBCO, Cat #C20012500BT) was added to each well to a final concentration of 0.01 μg/L (namely, the vehicle control group); Each group was mixed well and incubated in a 37° C./5% CO2 incubator for 4 hours. In addition, the blood of mice in the drug-treated group was centrifuged to separate plasma for blood concentration analysis.
B cell activation ratio=percentage of CD69^+CD19^+ double positive B cells/percentage of CD19^+ single positive B cells
Inhibition ratio=(percentage of B cell activation ratio in anti-IgD antibody-induced vehicle group−percentage of B cell activation ratio in drug-treated group)/(percentage of B cell activation ratio in anti-IgD antibody−induced vehicle group-percentage of B cell activation ratio in vehicle control group)×100%
All data are represented by mean±standard error. For the comparison between each drug-treated group and the anti-IgD antibody-induced vehicle group, p value was calculated by Graphpad Prism using one-way ANOVA analysis of variance and Dunnett's test, and for the comparison between each drug-treated group, p value was calculated by using unpaired t test.

Chain of BTK recombinant protein (Q06187 whole entry): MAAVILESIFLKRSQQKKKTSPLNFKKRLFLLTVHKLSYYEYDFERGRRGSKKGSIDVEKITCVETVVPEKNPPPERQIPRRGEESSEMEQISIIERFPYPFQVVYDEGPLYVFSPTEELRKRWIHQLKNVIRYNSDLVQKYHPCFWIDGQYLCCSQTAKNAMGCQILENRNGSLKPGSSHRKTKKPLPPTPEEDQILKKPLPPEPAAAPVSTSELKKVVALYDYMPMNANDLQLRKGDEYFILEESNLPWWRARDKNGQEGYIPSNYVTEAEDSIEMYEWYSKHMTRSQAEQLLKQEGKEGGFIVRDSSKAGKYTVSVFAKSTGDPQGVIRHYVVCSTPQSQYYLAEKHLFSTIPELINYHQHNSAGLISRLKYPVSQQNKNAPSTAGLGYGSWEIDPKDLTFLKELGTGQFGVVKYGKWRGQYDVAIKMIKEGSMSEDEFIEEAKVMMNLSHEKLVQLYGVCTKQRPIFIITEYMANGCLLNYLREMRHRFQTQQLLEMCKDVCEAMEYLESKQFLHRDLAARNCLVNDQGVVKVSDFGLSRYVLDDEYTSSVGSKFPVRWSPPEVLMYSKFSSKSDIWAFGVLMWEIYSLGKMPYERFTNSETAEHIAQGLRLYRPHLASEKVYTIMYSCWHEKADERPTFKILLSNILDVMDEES

## C[C@@H]1CN(C2COC2)C[C@H](C)N1c1ccc(Nc2cc(-c3ccnc(-n4ccn5c6c(cc5c4=O)CC(C)(C)C6)c3CO)cn(C)c2=O)nc1 [Compound 2]
[1]
  MLM, percentage of the remaining compound after 30 minutes of incubation: 92.6%
[2]
  IC50: 7 nM
[3]
  RLM, percentage of the remaining compound after 30 minutes of incubation: 85.7%
[4]
  Inhibition ratio (%) on B cell activation: 43%
[4]; mean ± standard error
  B cell activation ratio (the population of activated B cells in total B cells): 20.6 ± 5.0
[4]; listed as compound 2
  Inhibition ratio (%) on B cell activation: 43%
